Assay [1] concerns truncated (402 amino acids) human β3-adrenergic receptor. To be noted: cited from earlier work; for inhibition at the truncated receptor: Emorine et al., 1989.
Assay [2] deals with T1, full length (408 amino acids) human β3-adrenergic receptor (Homo sapiens, UniProt P13945).
T1 construct: CHO cells expressing the full length human β3 receptor are harvested; expressed in transfected cells
The experiment in a line: Functional activity (adenylyl cyclase) at full-length human β3 receptor expressed in CHO cells. The class given is biochemical.
Method: Culture medium was removed and cells were washed in phosphate-buffered saline and then harvested in 25 mM HEPES (pH 8.0) buffer containing 2 mM MgCl2 and 1 mM EDTA. Cell were homogenized and centrifuged at 48,000×g for 15 min. to obtain crude membranes. Membrane pellets were resuspended and used directly or frozen at -80° until used. […] Membranes (5-15 μg of protein) were preincubated at 4°, in a volume of 40 μl, with the specified drugs for 15 min. Adenylyl cyclase reactions were initiated by addition of substrate mixture and were terminated after 30 min at 30°. […] Concentration-response data were analyzed by nonlinear regression analysis with a one-site mass action equation for transfected CHO cells (Enzfitter, Elsevier Biosoft).
Chinese hamster ovary (CHO) cells are transfected with constructs based upon the expression vector pRc/CMV. […] Transfection of CHO cells with DNA constructs is accomplished by the CaPO4 -DNA precipitation method as described in Maniatis et al., ibid. To obtain cells that stably express these DNA constructs, transfected cells are selected based upon their resistance to G418, which is conferred by the neomycin-resistance gene contained in pRc/CMV. Cells that survive selective conditions (e.g. 800 μg/ml G418) are then cloned by limiting dilution.
CHO cells expressing the full length human β3 receptor are harvested and membranes prepared as described by Granneman et al., ibid. Adenylyl cyclase activity is then determined in response to various agents known or thought to interact with the β3 receptor, using the method of Salomon, ibid. Agonists are identified by the ability to increase cyclic AMP generation above basal levels. Antagonists are identified by their ability to decrease adenylyl cyclase activity that is stimulated by 100 nM isoproterenol.

The test system of assay [3] is adipose tissue-specific genes. As to conditions: Kletzien et al., 1992; cited from earlier work.

Molecules are shown by their SMILES.

T1 sequence (P13945 whole entry): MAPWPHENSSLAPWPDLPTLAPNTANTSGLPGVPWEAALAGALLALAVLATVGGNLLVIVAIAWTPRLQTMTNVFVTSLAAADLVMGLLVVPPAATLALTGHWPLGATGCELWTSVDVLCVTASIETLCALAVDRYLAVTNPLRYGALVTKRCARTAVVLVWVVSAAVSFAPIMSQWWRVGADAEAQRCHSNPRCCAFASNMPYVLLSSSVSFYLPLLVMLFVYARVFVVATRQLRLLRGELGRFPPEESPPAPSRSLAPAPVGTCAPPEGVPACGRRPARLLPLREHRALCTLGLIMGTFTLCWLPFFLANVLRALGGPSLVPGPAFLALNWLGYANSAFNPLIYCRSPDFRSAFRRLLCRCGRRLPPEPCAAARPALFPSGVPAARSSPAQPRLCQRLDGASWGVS

Turning to `CC(C)NCC(O)COc1cccc2ccccc12` (stereo not shown) [Propranolol], the “inhibition at the truncated receptor” value in assay [1] is “essentially inactive”. Turning to `CC(Cc1ccc(OCC(=O)O)cc1)NCC(O)c1cccc(Cl)c1` (stereo not shown) [BRL 37344], the agonist character result in assay [2] (full length receptor) and in assay [1] was “partial agonists” in each case. The activation potency entry in assay [2] (full-length receptor) is on record as “relatively low potency”. Take `CC1(COc2ccc(CC3SC(=O)NC3=O)cc2)CCCCC1` (stereo not shown) [Cigilazone]: the “effect on expression of adipose tissue-specific genes” value in assay [3] is reported as “augment the expression of adipose tissue-specific genes”. In the case of `C=CCc1ccccc1OCC(O)CNC(C)C` (stereo not shown) [alprenolol], the “potency of inhibition of the full length receptor (antagonists)” value in assay [2] (full length receptor) is “submicromolar potencies”. The “inhibition at the truncated receptor” value in assay [1] was “essentially inactive”.

The values above are taken from patent US5364772A, “DNA molecule encoding the β3 -adrenergic receptor” (Wayne State University, priority 1992, dated 1994).
